Reference: patent US20260317324A1, “BIFUNCTIONAL COMPOUNDS FOR DEGRADING BRAF VIA UBIQUITIN PROTEOSOME PATHWAY” (Nurix Therapeutics, Inc., priority 2023, published 2026)

Target: T1, BRAF V600E (Homo sapiens, UniProt P15056, V600E)
T1 construct: endogenous C-terminal HiBiT fusion tag on BRAF V600E allele; endogenous in cells; host or cells: A375 clone 1F10 (CRISPR-Cas9 knock-in of the HiBiT tag; parental A375 from ATCC)
Test: BRAF HiBiT degradation assay, C-terminal HiBiT-tagged BRAF V600E A375 cells (clone 1F10), Nano-Glo HiBiT Lytic assay
Assay type: cell-based
Conditions: for Dmax: A-375
Summary of the method: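 Degradation is measured as loss of HiBiT signal from BRAF V600E tagged at its native locus in A375 cells. Doses span 1 μM to 0.01 nM in half-log steps, in duplicate. Percent remaining is calculated against DMSO controls after subtracting untagged A375 background, and curve fitting yields DC50 and observed Dmax.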

[1] = A375 (BRAF V600E), DC50 at 50%: fitted conc. at Y=50
[2] = A375 (BRAF V600E), percentage protein degraded at maximal compound effect relative to DMSO
[3] = A375 (BRAF V600E, Class 1), DC50 at 50% degradation
[4] = A375 (BRAF V600E, Class 1), observed Dmax, % protein degraded relative to DMSO control

T1 sequence (P15056 whole entry V600E, the tested form may be a part): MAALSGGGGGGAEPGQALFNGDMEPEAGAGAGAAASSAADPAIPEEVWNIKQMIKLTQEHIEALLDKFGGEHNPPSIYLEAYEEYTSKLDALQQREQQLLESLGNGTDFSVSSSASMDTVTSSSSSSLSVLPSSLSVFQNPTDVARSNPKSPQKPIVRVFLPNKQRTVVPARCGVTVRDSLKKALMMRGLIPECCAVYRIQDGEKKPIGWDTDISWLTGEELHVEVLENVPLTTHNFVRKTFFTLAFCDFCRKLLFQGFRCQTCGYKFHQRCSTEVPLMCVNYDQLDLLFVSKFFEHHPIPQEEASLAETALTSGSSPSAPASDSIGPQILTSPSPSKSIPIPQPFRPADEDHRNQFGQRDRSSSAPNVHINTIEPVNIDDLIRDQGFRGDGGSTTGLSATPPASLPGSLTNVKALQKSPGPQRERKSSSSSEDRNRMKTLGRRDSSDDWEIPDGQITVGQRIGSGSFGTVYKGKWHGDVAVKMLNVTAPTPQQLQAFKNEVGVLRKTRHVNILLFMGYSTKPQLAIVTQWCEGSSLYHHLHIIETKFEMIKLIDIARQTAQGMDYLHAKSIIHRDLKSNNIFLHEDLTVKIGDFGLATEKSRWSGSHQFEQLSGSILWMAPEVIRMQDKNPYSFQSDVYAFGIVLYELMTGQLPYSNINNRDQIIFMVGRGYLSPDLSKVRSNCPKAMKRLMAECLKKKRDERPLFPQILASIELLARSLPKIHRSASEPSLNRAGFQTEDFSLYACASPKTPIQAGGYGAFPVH

| Compound | DC50 [1] [nM] | Dmax [2] [%] | DC50 [3] [nM] | Dmax [4] [%] |
| --- | --- | --- | --- | --- |
| CCCS(=O)(=O)Nc1cccc(-c2nc(C3CCC4(CC3)CCN(C(=O)CN3CCN(c5ccc6c(c5)C(=O)N(C5CCC(=O)NC5=O)C6=O)CC3)CC4)sc2-c2ccnc(N)n2)c1F (racemic) [Compound 231, Rac-N-{3-[5-(2-aminopyrimidin-4-yl)-2-{3-[2-(4-{2-[(3R)-2,6-dioxopiperidin-3-yl]-1,3-dioxo-2,3-dihydro-1H-isoindol-5-yl}piperazin-1-yl)acetyl]-3-azaspiro[5.5]undecan-9-yl}-1,3-thiazol-4-yl]-2-fluorophenyl}propane-1-sulfonamide] | < 10 | 30 to 70 | – | – |
| CCCS(=O)(=O)Nc1cccc(-c2nc(C3(C)CCN(C(=O)CN4CCN(c5ccc6c(c5)C(=O)N(C5CCC(=O)NC5=O)C6=O)CC4)CC3)sc2-c2ccnc(N)n2)c1F (racemic) [Compound 232, Rac-N-{3-[5-(2-aminopyrimidin-4-yl)-2-{1-[2-(4-{2-[(3R)-2,6-dioxopiperidin-3-yl]-1,3-dioxo-2,3-dihydro-1H-isoindol-5-yl}piperazin-1-yl)acetyl]-4-methylpiperidin-4-yl}-1,3-thiazol-4-yl]-2-fluorophenyl}propane-1-sulfonamide] | 50 to 500 | 30 to 70 | – | – |
| CCCS(=O)(=O)Nc1cccc(-c2nc(C3CCN(C(=O)CN4CCN(c5ccc6c(c5)C(=O)N(C5CCC(=O)NC5=O)C6=O)CC4)CC3)sc2-c2ccnc(N)n2)c1F (racemic) [Compound 233, Rac-N-{3-[5-(2-aminopyrimidin-4-yl)-2-{1-[2-(4-{2-[(3R)-2,6-dioxopiperidin-3-yl]-1,3-dioxo-2,3-dihydro-1H-isoindol-5-yl}piperazin-1-yl)acetyl]piperidin-4-yl}-1,3-thiazol-4-yl]-2-fluorophenyl}propane-1-sulfonamide] | 10 to 50 | 30 to 70 | – | – |
| CCCS(=O)(=O)Nc1cccc(-c2nc(C3CCC4(CC3)CN(C(=O)CN3CCC5(CC3)CN(c3ccc6c(c3)C(=O)N(C3CCC(=O)NC3=O)C6=O)C5)C4)sc2-c2ccnc(N)n2)c1F (racemic) [Compound 236, Rac-N-{3-[5-(2-aminopyrimidin-4-yl)-2-{2-[2-(2-{2-[(3R)-2,6-dioxopiperidin-3-yl]-1,3-dioxo-2,3-dihydro-1H-isoindol-5-yl}-2,7-diazaspiro[3.5]nonan-7-yl)acetyl]-2-azaspiro[3.5]nonan-7-yl}-1,3-thiazol-4-yl]-2-fluorophenyl}propane-1-sulfonamide] | < 10 | > 70 | – | – |
| CCCS(=O)(=O)Nc1cccc(-c2nc(C3CCC4(CC3)CCN(C(=O)CN3CCC5(CC3)CN(c3ccc6c(c3)C(=O)N(C3CCC(=O)NC3=O)C6=O)C5)CC4)sc2-c2ccnc(N)n2)c1F (racemic) [Compound 237, Rac-N-{3-[5-(2-aminopyrimidin-4-yl)-2-{3-[2-(2-{2-[(3R)-2,6-dioxopiperidin-3-yl]-1,3-dioxo-2,3-dihydro-1H-isoindol-5-yl}-2,7-diazaspiro[3.5]nonan-7-yl)acetyl]-3-azaspiro[5.5]undecan-9-yl}-1,3-thiazol-4-yl]-2-fluorophenyl}propane-1-sulfonamide] | < 10 | > 70 | – | – |
| CCCS(=O)(=O)Nc1cccc(-c2nc(C3CCN(C(=O)CN4CCC5(CC4)CN(c4ccc6c(c4)C(=O)N(C4CCC(=O)NC4=O)C6=O)C5)CC3)sc2-c2ccnc(N)n2)c1F (racemic) [Compound 239, Rac-N-{3-[5-(2-aminopyrimidin-4-yl)-2-{1-[2-(2-{2-[(3R)-2,6-dioxopiperidin-3-yl]-1,3-dioxo-2,3-dihydro-1H-isoindol-5-yl}-2,7-diazaspiro[3.5]nonan-7-yl)acetyl]piperidin-4-yl}-1,3-thiazol-4-yl]-2-fluorophenyl}propane-1-sulfonamide] | < 10 | > 70 | – | – |
| CCCS(=O)(=O)Nc1cccc(-c2nc(C(C)(C)C3CCN(C(=O)CN4CCC5(CC4)CN(c4ccc6c(c4)C(=O)N(C4CCC(=O)NC4=O)C6=O)C5)CC3)sc2-c2ccnc(N)n2)c1F (racemic) [Compound 240, Rac-N-{3-[5-(2-aminopyrimidin-4-yl)-2-(2-{1-[2-(2-{2-[(3R)-2,6-dioxopiperidin-3-yl]-1,3-dioxo-2,3-dihydro-1H-isoindol-5-yl}-2,7-diazaspiro[3.5]nonan-7-yl)acetyl]piperidin-4-yl}propan-2-yl)-1,3-thiazol-4-yl]-2-fluorophenyl}propane-1-sulfonamide] | > 500 | 30 to 70 | – | – |
| CCCS(=O)(=O)Nc1cccc(-c2nc(C3CCC4(CC3)CN(C(=O)C3CN(C5CCN(c6ccc7c(c6)C(=O)N(C6CCC(=O)NC6=O)C7=O)CC5)C3)C4)sc2-c2ccnc(N)n2)c1F (racemic) [Compound 241, Rac-N-{3-[5-(2-aminopyrimidin-4-yl)-2-{2-[1-(1-{2-[(3R)-2,6-dioxopiperidin-3-yl]-1,3-dioxo-2,3-dihydro-1H-isoindol-5-yl}piperidin-4-yl)azetidine-3-carbonyl]-2-azaspiro[3.5]nonan-7-yl}-1,3-thiazol-4-yl]-2-fluorophenyl}propane-1-sulfonamide] | < 10 | > 70 | – | – |
| CCCS(=O)(=O)Nc1cccc(-c2nc(C3CCN(C(=O)C4CN(C5CCN(c6ccc7c(c6)C(=O)N(C6CCC(=O)NC6=O)C7=O)CC5)C4)CC3)sc2-c2ccnc(N)n2)c1F (racemic) [Compound 242, Rac-N-{3-[5-(2-aminopyrimidin-4-yl)-2-{1-[1-(1-{2-[(3R)-2,6-dioxopiperidin-3-yl]-1,3-dioxo-2,3-dihydro-1H-isoindol-5-yl}piperidin-4-yl)azetidine-3-carbonyl]piperidin-4-yl}-1,3-thiazol-4-yl]-2-fluorophenyl}propane-1-sulfonamide] | < 10 | > 70 | – | – |
| CCCS(=O)(=O)Nc1cccc(-c2nc(C3CCC4(CC3)CCN(C(=O)CC3CCN(C5CCN(c6ccc7c(c6)C(=O)N(C6CCC(=O)NC6=O)C7=O)CC5)CC3)CC4)sc2-c2ccnc(N)n2)c1F (racemic) [Compound 248, Rac-N-{3-[5-(2-aminopyrimidin-4-yl)-2-{3-[2-(1′-{2-[(3R)-2,6-dioxopiperidin-3-yl]-1,3-dioxo-2,3-dihydro-1H-isoindol-5-yl}-[1,4′-bipiperidin]-4-yl)acetyl]-3-azaspiro[5.5]undecan-9-yl}-1,3-thiazol-4-yl]-2-fluorophenyl}propane-1-sulfonamide] | – | – | < 10 | > 70 |
| CCCS(=O)(=O)Nc1cccc(-c2nc(C3(C)CCN(C(=O)CC4CCN(C5CCN(c6ccc7c(c6)C(=O)N(C6CCC(=O)NC6=O)C7=O)CC5)CC4)CC3)sc2-c2ccnc(N)n2)c1F (racemic) [Compound 249, Rac-N-{3-[5-(2-aminopyrimidin-4-yl)-2-{1-[2-(1′-{2-[(3R)-2,6-dioxopiperidin-3-yl]-1,3-dioxo-2,3-dihydro-1H-isoindol-5-yl}-[1,4′-bipiperidin]-4-yl)acetyl]-4-methylpiperidin-4-yl}-1,3-thiazol-4-yl]-2-fluorophenyl}propane-1-sulfonamide] | – | – | 50 to 500 | 30 to 70 |
| CCCS(=O)(=O)Nc1cccc(-c2nc(C3CCC4(CC3)CCN(CC3CCN(c5ccc(C6CCC(=O)NC6=O)cc5)CC3)CC4)sc2-c2ccnc(N)n2)c1F (racemic) [Compound 256, Rac-N-{3-[5-(2-aminopyrimidin-4-yl)-2-{3-[(1-{4-[(3R)-2,6-dioxopiperidin-3-yl]phenyl}piperidin-4-yl)methyl]-3-azaspiro[5.5]undecan-9-yl}-1,3-thiazol-4-yl]-2-fluorophenyl}propane-1-sulfonamide] | – | – | 50 to 500 | 30 to 70 |
